# Where “and” joins values, the source holds several entries; their conditions need not be identical. Identical values can stand only once. Strand notation (5' to 3'): a small letter for the sugar, then the base; units joined by * are phosphorothioate-linked, units joined directly phosphodiester-linked; [ ] holds rarer units or linkages, { } end groups; capitals alone tell only the bases. d = 2'-deoxy (DNA); m = 2'-O-methyl; f = 2'-fluoro
# What was measured:
# [1] = system: PKC-α mRNA; test: Northern blot analysis of PKC-α mRNA levels; type: cell-based, human; details: FIGS. 3 to 5
# Experimental: Oligonucleotides having SEQ ID NO:4 were synthesized as uniformly phosphorothioate chimeric oligonucleotides having a centered deoxy gap of varying lengths flanked by 2′-O-methylated regions. These oligonucleotides (500 nM concentration) were tested for effects on PKC-α mRNA levels by Northern blot analysis.
# [2] = system: mutant (activated) H-ras RNA; type: cell-based, human
# [3] = system: c-raf mRNA; test: Northern blot analysis of c-raf mRNA expression in T24 cells; type: cell-based, human
# Source text: Chimeric oligonucleotides having SEQ ID NO:7 were designed using the Genbank c-raf sequence HUMRAFR (Genbank listing x03484), synthesized and tested for inhibition of c-raf mRNA expression in T24 bladder carcinoma cells using a Northern blot assay. These chimeric oligonucleotides have central “gap” regions of 6, 8 or 10 deoxynucleotides flanked by two regions of 2′-O-methyl modified nucleotides, and are shown in Table 10. Backbones were uniformly phosphorothioate. […] These oligonucleotides are preferred.
# The human urinary bladder cancer cell line T24 was obtained from the American Type Culture Collection (Rockville, Md.). Cells were grown in McCoy's 5A medium with L-glutamine (GIBCO-BRL, Gaithersburg, Md.), supplemented with 10% heat-inactivated fetal calf serum and 50 U/ml each of penicillin and streptomycin. Cells were seeded on 100 mm plates. When they reached 70% confluency, they were treated with oligonucleotide. Plates were washed with 10 ml prewarmed PBS and 5 ml of OptiMEM reduced-serum medium containing 2.5 μl DOTMA. Oligonucleotide with lipofectin was then added to the desired concentration. After 4 hours of treatment, the medium was replaced with McCoy's medium. Cells were harvested 24 to 72 hours after oligonucleotide treatment and RNA was isolated using a standard CsCl purification method. [Kingston in Current Protocols in Molecular Biology, F. M. Ausubel, R. Brent, R. E. Kingston, D. D. Moore, J. A. Smith, J. G. Seidman and K. Strahl, Eds., John Wiley and Sons, New York.] Total RNA was isolated by centrifugation of cell lysates over a CsCl cushion. RNA samples were electrophoresed through 1.2% agarose-formaldehyde gels and transferred to hybridization. membranes by capillary diffusion over a 12-14 hour period. The RNA was cross-linked to the membrane by exposure to UV light in a Stratalinker (Stratagene, La Jolla, Calif.) and hybridized to random-primed ^32P-labeled c-raf cDNA probe (obtained from ATCC) or G3PDH probe as a control. RNA was quantitated using a Phosphorimager (Molecular Dynamics, Sunnyvale, Calif.).
# [4] = system: ras mRNA; test: Northern blot analysis of ras expression in T24 cells; type: cell-based, human; parameters: inhibition of ras expression / decrease of ras mRNA: concentration or dose not given beside the values; details: T24 cells, Northern blot
# Experimental: The human urinary bladder cancer cell line T24 was obtained from the American Type Culture Collection (Rockville Md.). Cells were grown in McCoy's 5A medium with L-glutamine (GIBCO-BRL, Gaithersburg, Md.), supplemented with 10% heat-inactivated fetal calf serum and 50 U/ml each of penicillin and streptomycin. Cells were seeded on 100 mm plates. When they reached 70% confluency, they were treated with oligonucleotide. Plates were washed with 10 ml prewarmed PBS and 5 ml of OptiMEM (GIBCO) reduced-serum medium containing 2.5 μl DOTMA. Oligonucleotide was then added to the desired concentration. After 4 hours of treatment, the medium was replaced with McCoy's medium. Cells were harvested 48 hours after oligonucleotide treatment and RNA was isolated using a standard CsCl purification method. [Kingston in Current Protocols in Molecular Biology, F. M. Ausubel, R. Brent, R. E. Kingston, D. D. Moore, J. A. Smith, J. G. Seidman and K. Strahl, Eds., John Wiley and Sons, New York.] The human epithelioid carcinoma cell line HeLa 229 was obtained from the American Type Culture Collection (Bethesda, Md.). HeLa cells were maintained as monolayers on 6-well plates in Dulbecco's Modified Eagle's medium (DMEM) supplemented with 10% fetal bovine serum and 100 U/ml penicillin. Treatment with oligonucleotide and isolation of RNA were essentially as described above for T24 cells.
# Northern hybridization: 10 μg of each RNA was electrophoresed on a 1.2% agarose/formaldehyde gel and transferred overnight to GeneBind 45 nylon membrane (Pharmacia LKB, Piscataway, N.J.) using standard methods. [Kingston in Current Protocols in Molecular Biology, F. M. Ausubel, R. Brent, R. E. Kingston, D. D. Moore, J. A. Smith, J. G. Seidman and K. Strahl, Eds., John Wiley and Sons, New York.] RNA was UV-crosslinked to the membrane. Double-stranded ^32P-labeled probes were synthesized using the Prime a Gene labeling kit (Promega, Madison, Wis.). The ras probe was a SalI-NheI fragment of a cDNA clone of the activated (mutant) H-ras mRNA having a GGC-to-GTC mutation at codon-12. The control probe was G3PDH. Blots were prehybridized for 15 minutes at 68° C. with the QuickHyb hybridization solution (Stratagene, La Jolla, Calif.). The heat-denatured radioactive probe (2.5×10^6 counts/2 ml hybridization solution) mixed with 100 μl of 10 mg/ml salmon sperm DNA was added and the membrane was hybridized for 1 hour at 68° C. The blots were washed twice for 15 minutes at room temperature in 2×SSC/0.1% SDS and once for 30 minutes at 60° C. with 0.1×SSC/0.1%SDS. Blots were autoradiographed and the intensity of signal was quantitated using an ImageQuant PhosphorImager (Molecular Dynamics, Sunnyvale, Calif.). Northern blots were first hybridized with the ras probe, then stripped by boiling for 15 minutes in 0.1×SSC/0.1%SDS and rehybridized with the control G3PDH probe to check for correct sample loading.
# [5] = system: complementary RNA strand (the sense strand); test: Thermal melting analysis of 2′-deoxy-2′-fluoro modified antisense oligonucleotides with complementary RNA; type: binding; details: for Tm (° C.)/ subst.: change in Tm per 2′-fluoro substitution; for Tm (° C.): second Tm column: change in Tm versus unmodified oligonucleotide
# [6] = first G°37 column: free energy of duplex with complementary RNA
# [7] = second G°37 column: change versus unmodified oligonucleotide
substance,measurement,setting,value
"AsAsAsAsCsGsTsCsAsGsCsCsAsTsGsGsTsCsCsC (AAAACGTCAGCCATGGTCCC; 2'-O-methyl/deoxy P=S chimera, chemistry not fully specified) [Oligonucleotide 5352]",reduction of PKC-α mRNA levels,[1],most active
C^MC^MA^M C^MA^MC^M C^MG^MAd C^MG^MG^M C^MG^MC^M C^MC^M [Oligonucleotide 3975],inhibition of ras-luciferase activity,[2],neither of the oligonucleotides having either the one or the three 2′-deoxy-erythro-pentofuranosyl nucleotide subsequences showed significant activity
"TCCCGCCTGTGACATGCATT (2'-O-methyl P=S chimera, 6-deoxy gap, chemistry not fully specified) [ISIS 6720]",inhibition of c-raf mRNA expression,[3],greater than 70%
"TTCTCCTCCTCCCCTGGCAG (sugars from the 5' end m12 d8, all phosphorothioate, T or U not given here) [ISIS 7854]",inhibition of c-raf mRNA expression,[3],> 70%
AsAsAsAsCsGsTsCsAsGsCsCsAsTsGsGsTsCsCsC (dA*dA*dA*dA*dC*dG*dT*dC*dA*dG*dC*dC*dA*dT*dG*dG*dT*dC*dC*dC) [Oligonucleotide 3522],reduction of PKC-α mRNA levels,[1],show reduction of PKC-α mRNA
C^MC^MA^M C^MA^MC^M C^MGdAd CdG^MG^M C^MG^MC^M C^MC^M [Oligonucleotide 3979],inhibition of ras-luciferase activity,[2],neither of the oligonucleotides having either the one or the three 2′-deoxy-erythro-pentofuranosyl nucleotide subsequences showed significant activity
"TsCsTs CsGsCs TsGsGs TsGsAs GsTsTs TsC (TCTCGCTGGTGAGTTTC; all phosphorothioate, sugars by position and methylation of C not given here) [Oligonucleotide 7082]",reduction of PKC-α mRNA levels,[1],most active in reducing PKC-α mRNA levels
"oligonucleotide with the 2′-O-propyl diester flanking regions: SEQ ID NO:1, phosphorothioate in the 7-base deoxy gap only, phosphodiester 2′-O-propyl flanking regions (DNA CCACACCGACGGCGCCC; sugars by position and backbone not given here; 2'-O-propyl phosphodiester flanks, 7-base phosphorothioate deoxy gap)",effect on ras expression,[2],able to inhibit ras expression
CTTATATTCCGTCATCGCTC [Oligonucleotide 2502],inhibition of ras expression / decrease of ras mRNA,[4]; listed as 2502,26%
"TsTsCs TsCsGs CsTsGs GsTsGs AsGsTs TsTsC (TTCTCGCTGGTGAGTTTC; all phosphorothioate, sugars by position and methylation of C not given here) [Oligonucleotide 6632]",reduction of PKC-α mRNA levels,[1],most active in reducing PKC-α mRNA levels
CsCsAsCoAoCoCoGoAoCoGoGoCoGsCsCsC [Oligonucleotide 4241],effect on ras expression,[2],completely inactive
C^MC^MA^M C^MAdCd CdGdAd CdGdGd CdG^MC^M C^MC^M [Oligonucleotide 3984],inhibition of ras expression / decrease of ras mRNA,[4],81%
CGA CUAUGCAAG UAC (CGACUAUGCAAGUAC; chemistry not fully specified),Tm (° C.)/ subst.,[5],+1.7 °C
same,G°37,[5]; [6],-16.18 ± 0.08 kcal/mol
same,G°37,[5]; [7],-6.07 ± 0.09 kcal/mol
same,Tm (° C.),[5],+13.8 °C
"AsAoAoAoCoGsTsCsAsGsCsCsAsTsGoGoToCoCsC (AAAACGTCAGCCATGGTCCC; linkages s1 o4 s9 o4 s1 (s phosphorothioate, o phosphodiester), sugars by position and methylation of C not given here; further chemistry not fully specified) [Oligonucleotide 7008]",reduction of PKC-α mRNA levels,[1],show reduction of PKC-α mRNA
"AoAoAoAoCoGsTsCsAsGsCsCsAsTsGoGoToCoCoC (AAAACGTCAGCCATGGTCCC; listed as DNA, chemistry not fully specified) [Oligonucleotide 7273]",reduction of PKC-α mRNA levels,[1],more active than their 2′-O-methyl counterparts
C^MC^MA^M C^MA^MC^M CdGdAd CdGdG^M C^MG^MC^M C^MC^M [Oligonucleotide 3980],inhibition of ras-luciferase activity,[2],next greatest inhibition
same,inhibition of ras expression / decrease of ras mRNA,[4],61%
CsCsAsCsAsCsCsGsAoCsGsGsCsGsCsCsC [Oligonucleotide 4248],effect on ras expression,[2],just as active as a full P═S molecule
"C^MC^MA^M C^MA^MCd CdGdAd CdGdGd C^MG^MC^M C^MC^M (antisense CCACACCGACGGCGCCC; sugars from the 5' end m5 d7 m5, backbone and methylation of C not given here) [Oligonucleotide 3985, 2′-O-methyl P═S chimera, 7-deoxy gap]",inhibition of ras-luciferase activity,[2],greatest inhibition
same,inhibition of ras expression / decrease of ras mRNA,[4],95% and 81%
"AsAoAoAoCoGsTsCsAsGsCsCsAsTsGoGoToCoCsC (AAAACGTCAGCCATGGTCCC; listed as DNA, chemistry not fully specified) [Oligonucleotide 7294]",reduction of PKC-α mRNA levels,[1],more active than their 2′-O-methyl counterparts
C^FC^FA^F C^FA^FCd CdGdAd CdGdGd C^FG^FC^F C^FC^F [Oligonucleotide 4690],inhibition of ras expression / decrease of ras mRNA,[4],82%
"Oligonucleotide 4689: SEQ ID NO:1, 2′-fluoro-modified nucleotides flanking a 5-deoxy gap (CCACACCGACGGCGCCC; sugars from the 5' end f6 d5 f6, all phosphorothioate, methylation of C not given here)",inhibition of ras expression / decrease of ras mRNA,[4],63%
TCCGTCATCGCTCCTCAGGG [Oligonucleotide 5122],inhibition of ras expression / decrease of ras mRNA,[4]; listed as 5122,15%
CTTATATTCCGTCATCGCTC [Oligonucleotide 4998],inhibition of ras expression / decrease of ras mRNA,[4]; listed as 4998,84%
CGACUAUGCAAG UAC (CGACUAUGCAAGUAC; chemistry not fully specified),Tm (° C.)/ subst.,[5],+1.8 °C
same,G°37,[5]; [6],-19.85 ± 0.05 kcal/mol
same,G°37,[5]; [7],-9.74 ± 0.06 kcal/mol
same,Tm (° C.),[5],+20.1 °C
